From ChEMBL document CHEMBL1201862, “PubChem BioAssay data set” (2004)
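Cultured in 96-well plates, cells were exposed to test compound for 48 hours across five concentrations. GI50: concentration for 50% inhibition of growth.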 Activity calls are given as the source filed them. Rule as the data show it: active = GI50 up to about 1.1 µM and inactive = higher.

How the values were obtained:
Test in all cases: NCI tumour cell line growth inhibition, 48 h
786-0 = system: 786-0
A498 = system: A498
A549 = system: A549
ACHN = system: ACHN
CAKI-1 = system: CAKI-1
CCRF-CEM = system: CCRF-CEM
COLO 205 = system: COLO 205
DLD-1 = system: DLD-1
DMS-114 = system: DMS-114
DMS-273 = system: DMS-273
EKVX = system: EKVX
HCC 2998 = system: HCC 2998
HL-60 = system: HL-60
HOP-62 = system: HOP-62
HOP-92 = system: HOP-92
HT-29 = system: HT-29
IGROV-1 = system: IGROV-1
K562 = system: K562
KM-20L2 = system: KM-20L2
KM12 = system: KM12
LOX IMVI = system: LOX IMVI
LXFL 529 = system: LXFL 529
M14 = system: M14
M19-MEL = system: M19-MEL
MOLT-4 = system: MOLT-4
Malme-3M = system: Malme-3M
NCI-H226 = system: NCI-H226
NCI-H23 = system: NCI-H23
NCI-H460 = system: NCI-H460
NCI-H522 = system: NCI-H522
OVCAR-3 = system: OVCAR-3
OVCAR-4 = system: OVCAR-4
OVCAR-5 = system: OVCAR-5
OVCAR-8 = system: OVCAR-8
RPMI-8226 = system: RPMI-8226
RXF 393 = system: RXF 393
RXF 631 = system: RXF 631
SF-268 = system: SF-268
SF-295 = system: SF-295
SF-539 = system: SF-539
SK-MEL-28 = system: SK-MEL-28
SK-MEL-2 = system: SK-MEL-2
SK-MEL-5 = system: SK-MEL-5
SK-OV-3 = system: SK-OV-3
SN12C = system: SN12C
SNB-19 = system: SNB-19
SNB-75 = system: SNB-75
SNB-78 = system: SNB-78
SW-620 = system: SW-620
TK-10 = system: TK-10
U-251 = system: U-251
UACC-257 = system: UACC-257
UO-31 = system: UO-31
XF498 = system: XF498
HCT-116 = system: HCT-116
HCT-15 = system: HCT-15
SR = system: SR
UACC-62 = system: UACC-62

## CC1=C(C(=O)Nc2ccc([N+](=O)[O-])cc2)C(c2ccccc2O)C(C(=O)Nc2ccc([N+](=O)[O-])cc2)=C(C)N1
786-0
  GI50: 21.2 µM (inactive)
A498
  GI50: 20.1 µM (inactive)
A549
  GI50: 28.2 µM (inactive)
ACHN
  GI50: 13.8 µM (inactive)
CAKI-1
  GI50: 21.4 µM (inactive)
CCRF-CEM
  GI50: 18 µM (inactive)
COLO 205
  GI50: 17.5 µM (inactive)
DLD-1
  GI50: 18.5 µM (inactive)
DMS-114
  GI50: 15.3 µM (inactive)
DMS-273
  GI50: 23.3 µM (inactive)
EKVX
  GI50: 23.1 µM (inactive)
HCC 2998
  GI50: 13.5 µM (inactive)
HL-60
  GI50: 19.2 µM (inactive)
HOP-62
  GI50: 14.1 µM (inactive)
HOP-92
  GI50: 11.7 µM (inactive)
HT-29
  GI50: 28.4 µM (inactive)
IGROV-1
  GI50: 25.9 µM (inactive)
K562
  GI50: 17.9 µM (inactive)
KM-20L2
  GI50: 14.5 µM (inactive)
KM12
  GI50: 20.2 µM (inactive)
LOX IMVI
  GI50: 16.1 µM (inactive)
LXFL 529
  GI50: 19.1 µM (inactive)
M14
  GI50: 19.3 µM (inactive)
M19-MEL
  GI50: 20.5 µM (inactive)
MOLT-4
  GI50: 15.2 µM (inactive)
Malme-3M
  GI50: 21.8 µM (inactive)
NCI-H226
  GI50: 16.6 µM (inactive)
NCI-H23
  GI50: 18.6 µM (inactive)
NCI-H460
  GI50: 21.4 µM (inactive)
NCI-H522
  GI50: 15 µM (inactive)
OVCAR-3
  GI50: 20.5 µM (inactive)
OVCAR-4
  GI50: 23.7 µM (inactive)
OVCAR-5
  GI50: 16 µM (inactive)
OVCAR-8
  GI50: 28.2 µM (inactive)
RPMI-8226
  GI50: 17.6 µM (inactive)
RXF 393
  GI50: 10.1 µM (inactive)
RXF 631
  GI50: 15.4 µM (inactive)
SF-268
  GI50: 19.1 µM (inactive)
SF-295
  GI50: 29.6 µM (inactive)
SF-539
  GI50: 22.1 µM (inactive)
SK-MEL-28
  GI50: 21.6 µM (inactive)
SK-MEL-2
  GI50: 15.6 µM (inactive)
SK-MEL-5
  GI50: 16.4 µM (inactive)
SK-OV-3
  GI50: 21.1 µM (inactive)
SN12C
  GI50: 19.6 µM (inactive)
SNB-19
  GI50: 37.2 µM (inactive)
SNB-75
  GI50: 25.8 µM (inactive)
SNB-78
  GI50: 30.5 µM (inactive)
SW-620
  GI50: 29.2 µM (inactive)
TK-10
  GI50: 44.7 µM (inactive)
U-251
  GI50: 21.4 µM (inactive)
UACC-257
  GI50: 21.7 µM (inactive)
UO-31
  GI50: 15.2 µM (inactive)
XF498
  GI50: 13.6 µM (inactive)

## COc1c(Cl)c2c(c(OC)c1OC)-c1ccc(OC)c(=O)c(Cl)c1C(NC(C)=O)CC2 (stereo unspecified)
786-0
  GI50: 0.308 µM (active)
A498
  GI50: 0.0593 µM (active)
A549
  GI50: 0.225 µM (active)
ACHN
  GI50: 0.668 µM (active)
CAKI-1
  GI50: 0.608 µM (active)
CCRF-CEM
  GI50: 0.305 µM (active)
COLO 205
  GI50: 0.194 µM (active)
DLD-1
  GI50: 0.345 µM (active)
DMS-114
  GI50: 0.224 µM (active)
DMS-273
  GI50: 0.116 µM (active)
EKVX
  GI50: 7.35 µM (inactive)
HCC 2998
  GI50: 0.182 µM (active)
HCT-116
  GI50: 0.125 µM (active)
HCT-15
  GI50: 0.356 µM
HL-60
  GI50: 0.169 µM (active)
HOP-62
  GI50: 0.306 µM (active)
HOP-92
  GI50: 0.117 µM (active)
HT-29
  GI50: 0.156 µM (active)
IGROV-1
  GI50: 0.466 µM (active)
K562
  GI50: 0.139 µM (active)
KM-20L2
  GI50: 0.12 µM (active)
KM12
  GI50: 0.104 µM (active)
LOX IMVI
  GI50: 0.296 µM (active)
LXFL 529
  GI50: 0.243 µM (active)
M14
  GI50: 0.244 µM (active)
M19-MEL
  GI50: 0.262 µM (active)
MOLT-4
  GI50: 0.345 µM (active)
Malme-3M
  GI50: 0.155 µM (active)
NCI-H226
  GI50: 0.316 µM (active)
NCI-H23
  GI50: 0.269 µM (active)
NCI-H460
  GI50: 0.134 µM (active)
NCI-H522
  GI50: 0.148 µM (active)
OVCAR-3
  GI50: 0.117 µM (active)
OVCAR-4
  GI50: 27.1 µM (inactive)
OVCAR-8
  GI50: 0.353 µM (active)
RPMI-8226
  GI50: 0.337 µM (active)
RXF 393
  GI50: 0.0382 µM (active)
RXF 631
  GI50: 0.473 µM (active)
SF-268
  GI50: 0.212 µM (active)
SF-295
  GI50: 0.14 µM (active)
SF-539
  GI50: 0.148 µM (active)
SK-MEL-28
  GI50: 0.288 µM (active)
SK-MEL-2
  GI50: 0.284 µM (active)
SK-MEL-5
  GI50: 0.141 µM (active)
SK-OV-3
  GI50: 0.133 µM (active)
SN12C
  GI50: 0.444 µM (active)
SNB-19
  GI50: 1.43 µM (inactive)
SNB-75
  GI50: 0.1 µM (active)
SNB-78
  GI50: 0.36 µM (active)
SR
  GI50: 0.444 µM (active)
SW-620
  GI50: 0.12 µM (active)
TK-10
  GI50: 0.69 µM (active)
U-251
  GI50: 0.235 µM (active)
UACC-257
  GI50: 0.14 µM (active)
UACC-62
  GI50: 0.108 µM (active)
UO-31
  GI50: 3.63 µM (inactive)
XF498
  GI50: 0.34 µM (active)
